# Data from ChEMBL document CHEMBL1145504, “Sensitivity of monkey B virus (Cercopithecine herpesvirus 1) to antiviral drugs: role of thymidine kinase in antiviral activities of substrate analogs and acyclonucleosides” (Antimicrob Agents Chemother, 2007).
# “And” between values parts separate entries of the source, which are not always exact repeats. Equal entries are not always repeated. The source made the active and inactive calls. No cut-off for these calls is given here.
# T1: Thymidine kinase (Macacine herpesvirus 1) (UniProt A3RLP8)
# T1 sequence (whole entry): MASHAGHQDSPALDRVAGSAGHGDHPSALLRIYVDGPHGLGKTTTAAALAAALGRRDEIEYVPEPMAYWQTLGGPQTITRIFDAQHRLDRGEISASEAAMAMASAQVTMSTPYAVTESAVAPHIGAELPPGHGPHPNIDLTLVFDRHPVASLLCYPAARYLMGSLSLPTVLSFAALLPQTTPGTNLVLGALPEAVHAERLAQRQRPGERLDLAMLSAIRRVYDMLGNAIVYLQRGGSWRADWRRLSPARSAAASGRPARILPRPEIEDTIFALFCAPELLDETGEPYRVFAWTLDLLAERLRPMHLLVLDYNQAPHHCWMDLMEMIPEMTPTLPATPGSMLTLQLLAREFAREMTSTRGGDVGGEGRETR
# T2: Thymidine kinase (Macacine herpesvirus 1, UniProt A3RLP8)
# T2 sequence (A3RLP8 whole entry): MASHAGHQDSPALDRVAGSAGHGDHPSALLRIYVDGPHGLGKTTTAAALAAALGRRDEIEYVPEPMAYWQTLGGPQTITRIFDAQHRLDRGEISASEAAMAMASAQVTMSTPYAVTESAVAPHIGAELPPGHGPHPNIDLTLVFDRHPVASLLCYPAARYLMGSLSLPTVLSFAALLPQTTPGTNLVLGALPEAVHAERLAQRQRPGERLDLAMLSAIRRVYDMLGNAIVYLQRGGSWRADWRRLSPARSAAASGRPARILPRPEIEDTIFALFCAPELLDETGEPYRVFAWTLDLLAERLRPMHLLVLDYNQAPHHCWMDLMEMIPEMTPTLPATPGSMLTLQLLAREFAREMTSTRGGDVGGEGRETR
# Legend:
# [1] = target: T1, Thymidine kinase (Macacine herpesvirus 1); settings: Macacine alphaherpesvirus 1; 100 uM
# [2] = tested on: Macacine alphaherpesvirus 1; assay: microbe, parasite or virus in culture; assay type: functional, organism-based; settings: Macacine alphaherpesvirus 1, Vero
# [3] = tested on: Macacine alphaherpesvirus 1; assay: microbe, parasite or virus in culture; assay type: functional, organism-based; settings: Macacine alphaherpesvirus 1, Vero; remark: listed apart in the source
# Human alphaherpesvirus 1 = assay: microbe, parasite or virus in culture; assay type: functional, organism-based; settings: Human alphaherpesvirus 1, F, Vero
# [4] = Cytotoxicity against african green monkey Vero cells after 2 days; assay type: cell-based; settings: chlorocebus sabaeus
# [5] = target: T1, Thymidine kinase (Macacine herpesvirus 1); assay: Activity of Herpes B virus recombinant thymidine kinase at 100 uM; settings: Macacine alphaherpesvirus 1
# Thymidine kinase = target: T2, Thymidine kinase
# [6] = tested on: Macacine alphaherpesvirus 1; assay: microbe, parasite or virus in culture; assay type: functional, organism-based; settings: Macacine alphaherpesvirus 1, Vero; remark: listed apart in the source
# [7] = target: T1, Thymidine kinase (Macacine herpesvirus 1); assay: Activity of Herpes B virus recombinant thymidine kinase at 1 mM; settings: Macacine alphaherpesvirus 1
# [8] = substrate: Cc1cn([C@H]2C[C@H](O)[C@@H](CO)O2)c(=O)[nH]c1=O; assay: (§1) Activity of Herpes B virus recombinant thymidine kinase; settings: Macacine alphaherpesvirus 1
# [9] = substrate: O=c1[nH]c(Nc2ccccc2)nc2c1ncn2CCCCO; assay: as §1; settings: Macacine alphaherpesvirus 1
# [10] = substrate: Cc1cn([C@H]2C[C@H](O)[C@@H](CO)O2)c(=O)[nH]c1=O; settings: Human alphaherpesvirus 1
Molecule,EC50 [2],EC50 [3],EC50 (Human alphaherpesvirus 1),CC50 at 48 h [4],Activity [5],IC50 (Thymidine kinase),other results
Nc1ncnc2c1ncn2[C@@H]1O[C@H](CO)[C@@H](O)[C@@H]1O [VIDARABINE],28 µM,35 µM,7 µM,38 µM,–,–,Activity [1]: inactive
Cc1cc(=O)[nH]c(=O)n1[C@@H]1O[C@H](CO)[C@@H](O)[C@H]1O,–,–,–,–,–,–,Activity [1]: inactive
O=c1[nH]c(=O)n([C@H]2C[C@H](O)[C@@H](CO)O2)cc1C(F)(F)F [TRIFLURIDINE],1.7 µM,3.4 µM,< 1.7 µM,50.6 µM,55%,2 µM,–
CCCc1cn([C@H]2C[C@H](O)[C@@H](CO)O2)c(=O)[nH]c1=O,–,–,–,–,31%,4.2 µM,–
Nc1nc(O)c2ncn(CCC(CO)CO)c2n1 [PENCICLOVIR],17 µM,25.3 µM,4.7 µM,–,72%,–,EC50 [6]: 17.3 µM
"O=c1[nH]c(=O)n(C2C[C@H](O)[C@@H](CO)O2)cc1/C=C/Br (single isomer, unassigned)",–,–,–,–,inactive,–,Activity [7]: inactive
O=c1[nH]c(Nc2ccccc2)nc2c1ncn2CCCCO,> 330 µM,> 330 µM,330 µM,> 660 µM,200%,–,–
O=c1[nH]c(=O)n([C@H]2C[C@H](O)[C@@H](CO)O2)cc1I [IDOXURIDINE],11.2 µM,8.5 µM,2.8 µM,6.8 µM,58%,–,–
O=C(O)P(=O)(O)O [FOSCARNET],> 500 µM,250 µM,250 µM,> 1 µM,–,–,–
Nc1nc(O)c2ncn(COC(CO)CO)c2n1 [GANCICLOVIR],–,–,–,666 µM,–,800 µM,–
Nc1nc2c(ncn2CCCCO)c(=O)[nH]1,–,–,–,–,94%,177 µM,–
Cc1cn([C@H]2C[C@H](O)[C@@H](CO)O2)c(=O)[nH]c1=O (stereo in doubt; form 2),–,–,–,–,100%,–,–
CN(C)CCCCn1cnc2c(O)nc(Nc3ccccc3)nc21,–,–,–,–,–,1.2 µM,–
Cc1cn([C@H]2C[C@H](O)[C@@H](CO)O2)c(=O)[nH]c1=O (stereo in doubt; form 1),–,–,–,–,130%,–,–
O=c1[nH]c(Nc2cccc(C(F)(F)F)c2)nc2nc[nH]c12,–,–,–,–,–,3.5 µM,–
CCc1cn([C@H]2C[C@H](O)[C@@H](CO)O2)c(=O)[nH]c1=O [EDOXUDINE],37.4 µM,48 µM,2.1 µM,> 780 µM,82%,0.15 µM,EC50 [6]: 13.3 µM
O=c1[nH]c(=O)n([C@H]2C[C@H](O)[C@@H](CO)O2)cc1/C=C/Br [BRIVUDINE],> 300 µM,> 300 µM,0.12 µM,> 600 µM,inactive,–,Activity [7]: inactive
Nc1ccn(C[C@@H](CO)OCP(=O)(O)O)c(=O)n1 [CIDOFOVIR],28.9 µM,21.6 µM,14.4 µM,> 720 µM,inactive,900 µM,Activity [7]: inactive
Nc1nc2c(ncn2CCC(CO)CO)c(=O)[nH]1 [PENCICLOVIR],–,–,–,> 790 µM,–,84.4 µM,–
CCc1cn([C@@H]2C[C@H](O)[C@@H](CO)O2)c(=O)[nH]c1=O,–,–,–,–,–,52 µM,–
Nc1nc2c(ncn2COC(CO)CO)c(=O)[nH]1 [GANCICLOVIR],14.5 µM,23.5 µM,0.7 µM,–,inactive,–,Activity [7]: inactive; EC50 [6]: 19.2 µM
"O=c1[nH]c(=O)n(C2C[C@H](O)[C@@H](CO)O2)cc1I (single isomer, unassigned)",–,–,–,–,94%,–,–
Nc1nc2c(ncn2COCCO)c(=O)[nH]1 [ACYCLOVIR],112 µM,118 µM,1.4 µM,> 890 µM,inactive,–,Activity [7]: inactive; EC50 [6]: 47.5 µM
O=c1ccn([C@@H]2O[C@H](CO)[C@H](O)[C@@H]2O)c(=O)[nH]1,–,–,–,–,–,–,Activity [1]: inactive
"Thymidine kinase (Macacine herpesvirus 1), A3RLP8 (protein) MASHAGHQDSPALDRVAGSAGHGDHPSALLRIYVDGPHGLGKTTTAAALAAALGRRDEIEYVPEPMAYWQTLGGPQTITRIFDAQHRLDRGEISASEAAMAMASAQVTMSTPYAVTESAVAPHIGAELPPGHGPHPNIDLTLVFDRHPVASLLCYPAARYLMGSLSLPTVLSFAALLPQTTPGTNLVLGALPEAVHAERLAQRQRPGERLDLAMLSAIRRVYDMLGNAIVYLQRGGSWRADWRRLSPARSAAASGRPARILPRPEIEDTIFALFCAPELLDETGEPYRVFAWTLDLLAERLRPMHLLVLDYNQAPHHCWMDLMEMIPEMTPTLPATPGSMLTLQLLAREFAREMTSTRGGDVGGEGRETR",–,–,–,–,–,–,Km [8]: 0.7 µM and 0.65 µM; Vmax (nmol/hr/microg) [8]: 0.2 and 0.15; Km [9]: 7.4 µM; Vmax (nmol/hr/microg) [9]: 3.9
"Thymidine kinase (Human alphaherpesvirus 1), Q9QNF7 (protein) MASYPCHQHASAFDQAARSRGHSNRRTALRPRRQQEATEVRLEQKMPTLLRVYIDGPHGMGKTTTTQLLVALGSRDDIVYVPEPMTYWQVLGASETIANIYTTQHRLDQGEISAGDAAVVMTSAQITMGMPYAVTDAVLAPHIGGEAGSSHAPPPALTLIFDRHPIAALLCYPAARYLMGSMTPQAVLAFVALIPPTLPGTNIVLGALPEDRHIDRLAKRQRPGERLDLAMLAAIRRVYGLLANTVRYLQGGGSWREDWGQLSGTAVPPQGAEPQSNAGPRPHIGDTLFTLFRAPELLAPNGDLYNVFAWALDVLAKRLRPMHVFILDYDQSPAGCRDALLQLTSGMVQTHVTTPGSIPTICDLARTFAREMGEAN",–,–,–,–,–,–,Km [10]: 1 µM
